{
  "source": "patent US20160129034A1",
  "about": "“COMBINATION OF RO5503781, CAPECITABINE AND OXALIPLANTIN FOR CANCER THERAPY” (HOFFMANN-LA ROCHE INC., priority 2013, published 2016)",
  "test_system": "LoVo cell line",
  "assay": "LoVo colorectal xenograft in mice: tumor growth inhibition and survival",
  "type": "in vivo",
  "settings": "for % Inhibition (EOS) / % T/C (EOS): end of study; for Mean Tumor Volume: in mm³ (unit assumed)",
  "procedure": "The LoVo cell line was selected for implantation in mice as it is has activation of the p53-MDM2 pathway but lacks MDM2 amplification or overexpression, which therefore is felt to be more reflective of clinical reality of the colorectal cancer patient population of interest.\nCompound A and the capecitabine/oxaliplatin formulations were as follows. If not explicitly indicated otherwise, the amounts provided below are concentrations [mg/ml]. Compound A is used at concentrations of 10 mg/ml and 12.5 mg/ml. Capecitabine is used at concentrations of 12.5 mg/ml, 25 mg/ml and 50 mg/ml. Oxaliplatin is dosed at 5 mg/kg. The vehicle solutions for compound A and capecitabine are as follows:\nThe following treatment groups were used in the study • 1. Vehicle Control qd×5 po+qd×14 po • 2. Compound A 80 mg/kg qd×5 po • 3. Compound A 100 mg/kg qweekly×3 po • 4. Capecitabine 200 mg/kg qd×14 po • 5. Oxaliplatin 5 mg/kg qweekly ip×2 • 6. Capecitabine 200 mg/kg qd×14po+Oxaliplatin 5 mg/kg qweekly ip×2 • 7. Compound A 80 mg/kg qd×5+Capecitabine 200 mg/kg qd×14 • 8. Compound A 100 mg/kg qweekly×3+Capecitabine 200 mg/kg qd×14 • 9. Compound A 80 mg/kg qd×5+Capecitabine 200 mg/kg qd×14+Oxaliplatin 5 mg/kg qweekly ip×2 • 10. Compound A 100 mg/kg qweekly×3+Capecitabine 200 mg/kg qd×14+Oxaliplatin 5 mg/kg qweekly ip×2",
  "key": {"[1]": {"settings": "Capecitabine 200 mg/kg qdx14 po"}, "[2]": {"settings": "Oxaliplatin 5 mg/kg qweeklyx2 ip"}},
  "data": [
    {"smiles": "CCCCCOC(=O)Nc1nc(=O)n([C@@H]2O[C@H](C)[C@@H](O)[C@H]2O)cc1F", "note": "[Capecitabine, 5′-deoxy-5-fluoro-N-[(pentyloxy)-carbonyl]-cytidine]", "values": [
      {"measurement": "% Increased Life Span", "setting": "[1]", "value": 36, "unit": "%"},
      {"measurement": "% Inhibition (EOS)", "setting": "[1]", "value": 75, "unit": "%"},
      {"measurement": "% T/C (EOS)", "setting": "[1]", "value": 25, "unit": "%"},
      {"measurement": "Mean Tumor Volume", "setting": "[1]", "value": 129.07}
    ]},
    {"smiles": "COc1cc(C(=O)O)ccc1NC(=O)[C@@H]1N[C@@H](CC(C)(C)C)[C@](C#N)(c2ccc(Cl)cc2F)[C@H]1c1cccc(Cl)c1F", "note": "[Cpd. A, 4-{[(2R,3S,4R,5S)-4-(4-Chloro-2-fluoro-phenyl)-3-(3-chloro-2-fluoro-phenyl)-4-cyano-5-(2,2-dimethyl-propyl)-pyrrolidine-2-carbonyl]-amino}-3-methoxy-benzoic acid]", "values": [
      {"measurement": "% Increased Life Span", "setting": "Cpd A 80 mg/kg qdx5 po", "value": 21, "unit": "%"},
      {"measurement": "% Inhibition (EOS)", "setting": "Cpd A 80 mg/kg qdx5 po", "value": 64, "unit": "%"},
      {"measurement": "% T/C (EOS)", "setting": "Cpd A 80 mg/kg qdx5 po", "value": 38, "unit": "%"},
      {"measurement": "Mean Tumor Volume", "setting": "Cpd A 80 mg/kg qdx5 po", "value": 130.73},
      {"measurement": "% Increased Life Span", "setting": "Cpd A 100 mg/kg qwklyx3 po", "value": 21, "unit": "%"},
      {"measurement": "% Inhibition (EOS)", "setting": "Cpd A 100 mg/kg qwklyx3 po", "value": 60, "unit": "%"},
      {"measurement": "% T/C (EOS)", "setting": "Cpd A 100 mg/kg qwklyx3 po", "value": 40, "unit": "%"},
      {"measurement": "Mean Tumor Volume", "setting": "Cpd A 100 mg/kg qwklyx3 po", "value": 130.23}
    ]},
    {"smiles": "O=C(O)C(=O)O.[NH-][C@@H]1CCCC[C@H]1[NH-].[Pt+2]", "note": "[Oxaliplatin]", "values": [
      {"measurement": "% Increased Life Span", "setting": "[2]", "value": 0, "unit": "%"},
      {"measurement": "% Inhibition (EOS)", "setting": "[2]", "value": 23, "unit": "%"},
      {"measurement": "% T/C (EOS)", "setting": "[2]", "value": 77, "unit": "%"},
      {"measurement": "Mean Tumor Volume", "setting": "[2]", "value": 130.60}
    ]}
  ]
}
